Results reported in US12344600B2, “c-Myc mRNA translation modulators and uses thereof in the treatment of cancer” (Anima Biotech Inc., priority 2022, dated 2025).

Test system: c-Myc
Assay: c-Myc immunofluorescence assay
Format: cell-based, human
Conditions: A549 cells, 24 hours, anti-c-Myc immunofluorescence
Procedure: A549 human non-small cell lung carcinoma cells were treated for 24 hours with increasing compound concentration, cells were fixed and stained with a nuclei stain (DAPI) and anti-c-Myc fluorescent antibody. The c-Myc signal was quantified by image analysis, and data was exported and analyzed using TIBCO Spotfire® (TIBCO Corporation). Dose response curves were generated and fitted with logaristic regression to calculate potency (EC50 values). Potency values are presented in Table 2 for all compounds and are shown for selected compounds (FIG. 3).
A549 cells were grown in 384-wells plates (Perkin Elmer, Cat. 6057300) for 48 hours, treated with compounds and then fixed for 20 min in 4% paraformaldehyde. After that permeabilization was done using 0.1% Triton X-100 in PBS for 20 min. Primary anti-c-Myc antibody (Abcam, ab32072) staining was performed for 90 min at room temperature. Cells then were washed twice with PBS and incubated with secondary antibody (Abcam, ab150075) for 90 min at room temperature. Nuclei were stained with DAPI for 10 min and washed twice with PBS.
Cell images were taken with Operetta (Perkin Elmer, USA), a wide-field fluorescence microscope at 20× magnification. After acquisition, the images were transferred to Columbus software (Perkin-Elmer) for image analysis. In Columbus, cells were identified by their nucleus, using the “Find Nuceli” module and cytoplasm was detected based on the secondary antibody channel. Subsequently, the fluorescent signal was enumerated in the identified cell region. Then data was exported to a data analysis and visualization software, Tibco Spotfire, USA.

Row | SMILES | Myc Efficacy (−LogEC50)
1 | COc1ccc(-c2noc(N3CCC(C(=O)N4CCC(OC)CC4)CC3)n2)cc1 [Compound 134, (1-(3-(4-methoxyphenyl)-1,2,4-oxadiazol-5-yl)piperidin-4-yl)(4-methoxypiperidin-1-yl)methanone] | + (+ >3 and <5)
2 | COc1ccc(-c2noc(N3CCC(Oc4ccccc4)CC3)n2)cc1 [Compound 135, 3-(4-methoxyphenyl)-5-(4-phenoxypiperidin-1-yl)-1,2,4-oxadiazole] | − (− ≤3)
3 | COc1ccc(-c2noc(N3CCC(c4ccccc4)CC3)n2)cc1 [Compound 136, 3-(4-methoxyphenyl)-5-(4-phenylpiperidin-1-yl)-1,2,4-oxadiazole] | − (− ≤3)
4 | CNC(=O)C1CCN(c2nc(-c3ccc(OC)cc3)no2)CC1 [Compound 137, 1-(3-(4-methoxyphenyl)-1,2,4-oxadiazol-5-yl)-N-methylpiperidine-4-carboxamide] | + (+ >3 and <5)
5 | COc1ccc(-c2noc(N3CCNCC3)n2)cc1 [Compound 138, 3-(4-methoxyphenyl)-5-(piperazin-1-yl)-1,2,4-oxadiazole] | + (+ >3 and <5)
6 | COc1ccc(-c2noc(N3CCC(C(=O)N4CCOCC4)CC3)n2)cc1 [Compound 139, (1-(3-(4-methoxyphenyl)-1,2,4-oxadiazol-5-yl)piperidin-4-yl)(morpholino)methanone] | + (+ >3 and <5)
7 | COc1ccc(-c2noc(N3CCC(C(=O)NCCCN4CCC(C)CC4)CC3)n2)cc1 [Compound 140, 1-(3-(4-methoxyphenyl)-1,2,4-oxadiazol-5-yl)-N-(3-(4-methylpiperidin-1-yl)propyl)piperidine-4-carboxamide] | + (+ >3 and <5)
8 | COc1ccc(-c2noc(N3CCC(C(=O)NCCCN4CCC[C@H](C)C4)CC3)n2)cc1 [Compound 141, (S)-1-(3-(4-methoxyphenyl)-1,2,4-oxadiazol-5-yl)-N-(3-(3-methylpiperidin-1-yl)propyl)piperidine-4-carboxamide] | − (− ≤3)
9 | COc1ccc(-c2noc(N3CCC(C(=O)NCCCN4CCC[C@@H](C)C4)CC3)n2)cc1 [Compound 142, (R)-1-(3-(4-methoxyphenyl)-1,2,4-oxadiazol-5-yl)-N-(3-(3-methylpiperidin-1-yl)propyl)piperidine-4-carboxamide] | + (+ >3 and <5)
10 | COc1ccc(-c2noc(N3CCC(C(=O)Nc4ccccc4)CC3)n2)cc1 [Compound 143, 1-(3-(4-methoxyphenyl)-1,2,4-oxadiazol-5-yl)-N-phenylpiperidine-4-carboxamide] | ++ (++ ≥5 and <6)
11 | COc1ccc(-c2noc(N3CCN(C(=O)N4CCOCC4)CC3)n2)cc1 [Compound 144, (4-(3-(4-methoxyphenyl)-1,2,4-oxadiazol-5-yl)piperazin-1-yl)(morpholino)methanone] | + (+ >3 and <5)
12 | COc1ccc(-c2noc(N3CCN(C(=O)N4CCC(C)CC4)CC3)n2)cc1 [Compound 145, (4-(3-(4-methoxyphenyl)-1,2,4-oxadiazol-5-yl)piperazin-1-yl)(4-methylpiperidin-1-yl)methanone] | + (+ >3 and <5)
13 | COc1ccc(-c2noc(N3CCN(C(=O)N4CCS(=O)(=O)CC4)CC3)n2)cc1 [Compound 146, (1,1-dioxidothiomorpholino)(4-(3-(4-methoxyphenyl)-1,2,4-oxadiazol-5-yl)piperazin-1-yl)methanone] | + (+ >3 and <5)
14 | COc1ccc(-c2noc(N3CCN(C(C)=O)CC3)n2)cc1 [Compound 147, 1-(4-(3-(4-methoxyphenyl)-1,2,4-oxadiazol-5-yl)piperazin-1-yl)ethan-1-one] | + (+ >3 and <5)
15 | COc1ccc(-c2noc(N3CCN(C(=O)C4CCOCC4)CC3)n2)cc1 [Compound 148, (4-(3-(4-methoxyphenyl)-1,2,4-oxadiazol-5-yl)piperazin-1-yl)(tetrahydro-2H-pyran-4-yl)methanone] | + (+ >3 and <5)
16 | COc1ccc(-c2noc(CCC(=O)NC[C@H]3CCN(Cc4ccc(C)cc4)C3)n2)cc1 [Compound 149, (R)-3-(3-(4-methoxyphenyl)-1,2,4-oxadiazol-5-yl)-N-((1-(4-methylbenzyl)pyrrolidin-3-yl)methyl)propanamide] | ++ (++ ≥5 and <6)
17 | COc1ccc(-c2noc(CCC(=O)NC[C@@H]3CCN(Cc4ccc(C)cc4)C3)n2)cc1 [Compound 150, (S)-3-(3-(4-methoxyphenyl)-1,2,4-oxadiazol-5-yl)-N-((1-(4-methylbenzyl)pyrrolidin-3-yl)methyl)propanamide] | ++ (++ ≥5 and <6)
18 | COc1ccc(-c2noc(CCC(=O)NCCCN3CCC(Cc4ccccc4)CC3)n2)cc1 [Compound 151, N-(3-(4-benzylpiperidin-1-yl)propyl)-3-(3-(4-methoxyphenyl)-1,2,4-oxadiazol-5-yl)propanamide] | ++ (++ ≥5 and <6)
19 | COc1ccc(-c2noc(N3CCC(C(=O)NCCCN4CCC(Cc5ccccc5)CC4)CC3)n2)cc1 [Compound 152, N-(3-(4-benzylpiperidin-1-yl)propyl)-1-(3-(4-methoxyphenyl)-1,2,4-oxadiazol-5-yl)piperidine-4-carboxamide] | +++ (+++ ≥6)
20 | COc1ccc(-c2noc(C3CN(C(=O)N4CCC(C)CC4)C3)n2)cc1 [Compound 153, (3-(3-(4-methoxyphenyl)-1,2,4-oxadiazol-5-yl)azetidin-1-yl)(4-methylpiperidin-1-yl)methanone] | + (+ >3 and <5)
21 | Cc1ccc(CN2CCC(CNC(=O)C3CCN(c4nc(-c5ccc(Cl)cc5)no4)CC3)C2)cc1 (stereo not shown) [Compound 154, 1-(3-(4-chlorophenyl)-1,2,4-oxadiazol-5-yl)-N-((1-(4-methylbenzyl)pyrrolidin-3-yl)methyl)piperidine-4-carboxamide] | ++ (++ ≥5 and <6)
22 | Cc1ccc(CN2CCC(CNC(=O)C3CCN(c4nc(-c5cccc(Cl)c5)no4)CC3)C2)cc1 (stereo not shown) [Compound 155, 1-(3-(3-chlorophenyl)-1,2,4-oxadiazol-5-yl)-N-((1-(4-methylbenzyl)pyrrolidin-3-yl)methyl)piperidine-4-carboxamide] | ++ (++ ≥5 and <6)
23 | Cc1ccc(CN2CCC(CNC(=O)C3CCN(c4nc(-c5ccccc5Cl)no4)CC3)C2)cc1 (stereo not shown) [Compound 156, 1-(3-(2-chlorophenyl)-1,2,4-oxadiazol-5-yl)-N-((1-(4-methylbenzyl)pyrrolidin-3-yl)methyl)piperidine-4-carboxamide] | + (+ >3 and <5)
24 | COc1ccc(-c2cccc(N3CCC(C(=O)NCC4CCN(Cc5ccc(C)cc5)C4)CC3)n2)cc1 (stereo not shown) [Compound 157, 1-(6-(4-methoxyphenyl)pyridin-2-yl)-N-((1-(4-methylbenzyl)pyrrolidin-3-yl)methyl)piperidine-4-carboxamide] | ++ (++ ≥5 and <6)
25 | Cc1ccc(CN2CCC(CNC(=O)C3CCN(c4nc(-c5ccc(C#N)cc5)no4)CC3)C2)cc1 (stereo not shown) [Compound 158, 1-(3-(4-cyanophenyl)-1,2,4-oxadiazol-5-yl)-N-((1-(4-methylbenzyl)pyrrolidin-3-yl)methyl)piperidine-4-carboxamide] | ++ (++ ≥5 and <6)
